{"source": "ChEMBL document CHEMBL4304811", "about": "“Development of a Water-Soluble Indolylmaleimide Derivative IM-93 Showing Dual Inhibition of Ferroptosis and NETosis” (ACS Med Chem Lett, 2019)", "key": {"[1]": {"biological_target": "Serine/threonine-protein kinase ICK (Homo sapiens) (UniProt Q9UPZ9)", "assay": "Binding affinity to wild-type human partial length ICK (M1 to P314 residues) expressed in mammalian expression system assessed as residual binding level at 10 uM by Kinomescan method relative to control"}, "[2]": {"biological_target": "Serine/threonine-protein kinase SIK2 (Homo sapiens) (UniProt Q9H0K1)", "sequence (Q9H0K1 whole entry, looked up, the tested form may be a part)": "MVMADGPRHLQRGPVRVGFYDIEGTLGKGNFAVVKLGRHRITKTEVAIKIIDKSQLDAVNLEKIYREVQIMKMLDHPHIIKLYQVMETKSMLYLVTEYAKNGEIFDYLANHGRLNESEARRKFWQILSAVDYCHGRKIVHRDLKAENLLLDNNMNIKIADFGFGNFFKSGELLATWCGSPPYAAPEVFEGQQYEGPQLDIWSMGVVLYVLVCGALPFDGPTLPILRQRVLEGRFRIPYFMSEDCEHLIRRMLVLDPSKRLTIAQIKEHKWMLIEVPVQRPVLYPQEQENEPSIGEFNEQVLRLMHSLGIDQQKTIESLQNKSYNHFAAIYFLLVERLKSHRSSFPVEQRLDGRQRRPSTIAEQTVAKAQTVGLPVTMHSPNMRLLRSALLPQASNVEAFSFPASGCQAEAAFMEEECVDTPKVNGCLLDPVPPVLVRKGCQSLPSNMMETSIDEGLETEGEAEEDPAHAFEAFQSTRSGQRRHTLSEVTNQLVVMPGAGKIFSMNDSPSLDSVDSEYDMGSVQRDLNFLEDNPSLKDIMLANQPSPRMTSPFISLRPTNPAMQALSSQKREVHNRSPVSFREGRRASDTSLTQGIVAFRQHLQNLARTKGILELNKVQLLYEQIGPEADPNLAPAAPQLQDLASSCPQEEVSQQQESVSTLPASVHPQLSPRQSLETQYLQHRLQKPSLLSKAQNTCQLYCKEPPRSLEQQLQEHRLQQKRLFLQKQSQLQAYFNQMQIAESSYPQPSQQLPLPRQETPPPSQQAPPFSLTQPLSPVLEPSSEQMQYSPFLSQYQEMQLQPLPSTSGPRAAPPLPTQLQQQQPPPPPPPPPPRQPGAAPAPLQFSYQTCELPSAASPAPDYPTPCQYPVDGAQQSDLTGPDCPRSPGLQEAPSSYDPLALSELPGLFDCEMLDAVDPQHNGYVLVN", "assay": "Binding affinity to wild-type human full length SIK2 (M1 to N926 residues) expressed in bacterial expression system assessed as residual binding level at 10 uM by Kinomescan method relative to control"}, "[3]": {"system": "Mast/stem cell growth factor receptor Kit (Homo sapiens), P10721 [V559D,T670I]", "assay": "Binding affinity to human partial length KIT V559D/T670I double mutant (Y545 to D952 residues) expressed in bacterial expression system assessed as residual binding level at 10 uM by Kinomescan method relative to control"}, "[4]": {"biological_target": "Receptor tyrosine-protein kinase erbB-2 (Homo sapiens) (UniProt P04626)", "sequence (P04626 whole entry, the tested form may be a part)": "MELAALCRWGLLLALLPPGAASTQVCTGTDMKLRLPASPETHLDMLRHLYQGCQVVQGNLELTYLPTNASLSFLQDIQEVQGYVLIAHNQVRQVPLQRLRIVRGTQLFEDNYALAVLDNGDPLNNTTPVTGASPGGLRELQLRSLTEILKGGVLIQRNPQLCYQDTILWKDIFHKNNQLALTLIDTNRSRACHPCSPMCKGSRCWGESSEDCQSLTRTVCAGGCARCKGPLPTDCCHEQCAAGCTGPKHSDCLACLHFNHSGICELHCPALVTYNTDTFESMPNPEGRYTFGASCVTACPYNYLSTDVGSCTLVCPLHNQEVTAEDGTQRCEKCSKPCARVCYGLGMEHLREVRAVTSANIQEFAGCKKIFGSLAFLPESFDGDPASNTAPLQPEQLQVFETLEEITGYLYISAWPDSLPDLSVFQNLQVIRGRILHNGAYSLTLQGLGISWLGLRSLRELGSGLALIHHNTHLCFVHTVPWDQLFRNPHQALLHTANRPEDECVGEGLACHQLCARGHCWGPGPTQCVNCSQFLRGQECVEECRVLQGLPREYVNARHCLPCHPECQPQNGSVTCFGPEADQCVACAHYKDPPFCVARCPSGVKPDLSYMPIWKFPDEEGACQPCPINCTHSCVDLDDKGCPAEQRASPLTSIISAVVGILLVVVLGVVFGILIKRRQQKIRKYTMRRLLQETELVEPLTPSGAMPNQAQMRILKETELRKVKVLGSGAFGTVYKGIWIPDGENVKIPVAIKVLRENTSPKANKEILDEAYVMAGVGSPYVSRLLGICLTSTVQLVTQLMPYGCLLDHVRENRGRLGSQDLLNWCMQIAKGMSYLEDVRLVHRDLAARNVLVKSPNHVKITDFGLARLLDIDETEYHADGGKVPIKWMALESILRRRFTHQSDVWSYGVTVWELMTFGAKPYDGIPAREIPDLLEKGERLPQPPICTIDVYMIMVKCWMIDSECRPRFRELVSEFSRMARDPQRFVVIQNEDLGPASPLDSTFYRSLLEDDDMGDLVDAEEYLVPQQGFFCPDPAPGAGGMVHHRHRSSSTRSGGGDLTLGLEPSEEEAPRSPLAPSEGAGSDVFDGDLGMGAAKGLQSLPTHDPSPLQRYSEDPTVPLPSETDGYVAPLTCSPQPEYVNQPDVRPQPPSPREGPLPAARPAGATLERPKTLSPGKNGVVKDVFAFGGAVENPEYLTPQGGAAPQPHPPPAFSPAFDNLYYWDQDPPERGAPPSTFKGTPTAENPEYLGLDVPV", "assay": "Binding affinity to wild-type human partial length ERBB2 (K646 to V1225 residues) expressed in mammalian expression system assessed as residual binding level at 10 uM by Kinomescan method relative to control"}, "[5]": {"system": "Tyrosine-protein kinase ABL1 (Homo sapiens), P00519 [F317I]", "assay": "Binding affinity to human non-phosphorylated ABL1 F317I mutant (S229 to K512 residues) expressed in mammalian expression system assessed as residual binding level at 10 uM by Kinomescan method relative to control"}, "[6]": {"biological_target": "Receptor-interacting serine/threonine-protein kinase 4 (Homo sapiens) (UniProt P57078)", "assay": "Binding affinity to wild-type human partial length RIPK4 (M1 to V303 residues) expressed in mammalian expression system assessed as residual binding level at 10 uM by Kinomescan method relative to control"}, "THP-1": {"system": "THP-1", "assay": "Inhibition of Pseudomonas aeruginosa-induced pyroptosis in human THP1 cells at 10 uM preincubated for 1 hr followed by bacterial infection and measured after 2 hrs by INT dye based LDH assay", "type": "functional, cell-based"}, "[7]": {"biological_target": "Angiopoietin-1 receptor (Homo sapiens) (UniProt Q02763)", "assay": "Binding affinity to wild-type human partial length TIE2 (N804 to T1112 residues) expressed in bacterial expression system assessed as residual binding level at 10 uM by Kinomescan method relative to control"}, "[8]": {"biological_target": "Ephrin type-B receptor 1 (Homo sapiens) (UniProt P54762)", "assay": "Binding affinity to wild-type human partial length EPHB1 (P589 to T911 residues) expressed in bacterial expression system assessed as residual binding level at 10 uM by Kinomescan method relative to control"}, "Jurkat": {"system": "Jurkat", "assay": "Cytoprotection against fas ligand/cycloheximide/Z-VAD-fmk-induced necroptosis in human Jurkat cells at 4 to 25 uM measured after 20 hrs by WST-8 assay", "type": "functional, cell-based"}, "[9]": {"biological_target": "Myosin light chain kinase (Homo sapiens) (UniProt Q32MK0)", "assay": "Binding affinity to wild-type human partial length MLCK (D488 to K800 residues) expressed in bacterial expression system assessed as residual binding level at 10 uM by Kinomescan method relative to control"}, "[10]": {"biological_target": "STE20/SPS1-related proline-alanine-rich protein kinase (Homo sapiens) (UniProt Q9UEW8)", "assay": "Binding affinity to wild-type human partial length STK39 (P43 to I357 residues) expressed in mammalian expression system assessed as residual binding level at 10 uM by Kinomescan method relative to control"}, "[11]": {"biological_target": "Serine/threonine-protein kinase STK11 (Homo sapiens) (UniProt Q15831)", "sequence (Q15831 whole entry, the tested form may be a part)": "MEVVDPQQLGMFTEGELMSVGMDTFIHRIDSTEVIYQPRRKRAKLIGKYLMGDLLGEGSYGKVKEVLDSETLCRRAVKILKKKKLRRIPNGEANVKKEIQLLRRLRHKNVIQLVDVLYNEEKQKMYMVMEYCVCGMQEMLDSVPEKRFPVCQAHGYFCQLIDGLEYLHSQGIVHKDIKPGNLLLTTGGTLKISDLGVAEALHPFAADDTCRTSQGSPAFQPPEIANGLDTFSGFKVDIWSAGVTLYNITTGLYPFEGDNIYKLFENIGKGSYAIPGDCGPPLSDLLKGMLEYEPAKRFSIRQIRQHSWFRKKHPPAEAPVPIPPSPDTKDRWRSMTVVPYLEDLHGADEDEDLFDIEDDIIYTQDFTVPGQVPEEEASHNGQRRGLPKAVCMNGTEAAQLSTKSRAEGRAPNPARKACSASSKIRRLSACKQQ", "assay": "Binding affinity to wild-type human full length LKB1 (M1 to Q433 residues) expressed in bacterial expression system assessed as residual binding level at 10 uM by Kinomescan method relative to control"}, "[12]": {"biological_target": "Fibroblast growth factor receptor 4 (Homo sapiens) (UniProt P22455)", "assay": "Binding affinity to wild-type human partial length FGFR4 (G402 to E713 residues) expressed in bacterial expression system assessed as residual binding level at 10 uM by Kinomescan method relative to control"}, "[13]": {"biological_target": "Mitogen-activated protein kinase kinase kinase 14 (Homo sapiens) (UniProt Q99558)", "assay": "Binding affinity to wild-type human partial length NIK (L318 to P947 residues) expressed in mammalian expression system assessed as residual binding level at 10 uM by Kinomescan method relative to control"}, "[14]": {"biological_target": "Tyrosine-protein kinase Fyn (Homo sapiens) (UniProt P06241)", "sequence (P06241 2-537 limits assumed)": "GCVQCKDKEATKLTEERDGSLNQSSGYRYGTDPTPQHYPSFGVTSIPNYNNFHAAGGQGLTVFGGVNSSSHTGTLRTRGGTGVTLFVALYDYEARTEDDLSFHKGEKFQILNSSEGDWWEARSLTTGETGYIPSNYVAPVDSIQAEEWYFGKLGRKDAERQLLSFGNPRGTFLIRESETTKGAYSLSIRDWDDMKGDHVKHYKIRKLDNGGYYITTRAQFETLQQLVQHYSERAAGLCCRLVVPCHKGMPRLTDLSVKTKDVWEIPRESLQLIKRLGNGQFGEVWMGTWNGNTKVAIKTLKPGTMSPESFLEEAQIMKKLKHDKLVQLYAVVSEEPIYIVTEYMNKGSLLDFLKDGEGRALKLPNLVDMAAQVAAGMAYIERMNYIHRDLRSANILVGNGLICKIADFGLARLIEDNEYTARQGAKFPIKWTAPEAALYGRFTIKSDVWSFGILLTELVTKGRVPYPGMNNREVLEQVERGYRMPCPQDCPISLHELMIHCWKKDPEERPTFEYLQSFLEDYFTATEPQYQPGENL", "assay": "Binding affinity to wild-type human partial length FYN (T243 to L534 residues) expressed in bacterial expression system assessed as residual binding level at 10 uM by Kinomescan method relative to control"}, "[15]": {"biological_target": "Phosphatidylinositol 5-phosphate 4-kinase type-2 beta (Homo sapiens) (UniProt P78356)", "sequence (P78356 whole entry, the tested form may be a part)": "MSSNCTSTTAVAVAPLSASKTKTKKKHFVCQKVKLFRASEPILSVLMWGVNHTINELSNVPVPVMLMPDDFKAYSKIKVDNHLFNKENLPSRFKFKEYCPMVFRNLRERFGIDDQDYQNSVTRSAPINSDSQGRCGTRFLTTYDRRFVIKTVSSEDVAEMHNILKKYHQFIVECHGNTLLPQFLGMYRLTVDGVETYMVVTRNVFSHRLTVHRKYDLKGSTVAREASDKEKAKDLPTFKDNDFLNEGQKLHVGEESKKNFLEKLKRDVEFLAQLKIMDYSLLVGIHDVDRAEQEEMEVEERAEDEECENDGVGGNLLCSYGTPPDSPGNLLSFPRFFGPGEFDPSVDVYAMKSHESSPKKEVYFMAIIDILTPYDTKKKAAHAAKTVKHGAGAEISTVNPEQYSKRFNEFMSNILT", "assay": "Binding affinity to wild-type human full length PIP5K2B (M1 to T416 residues) expressed in bacterial expression system assessed as residual binding level at 10 uM by Kinomescan method relative to control"}, "[16]": {"biological_target": "Leukocyte tyrosine kinase receptor (Homo sapiens) (UniProt P29376)", "assay": "Binding affinity to wild-type human partial length LTK (P422 to S744 residues) expressed in bacterial expression system assessed as residual binding level at 10 uM by Kinomescan method relative to control"}, "[17]": {"biological_target": "Receptor tyrosine-protein kinase erbB-4 (Homo sapiens) (UniProt Q15303)", "assay": "Binding affinity to wild-type human partial length ERBB4 (L690 to K994 residues) expressed in bacterial expression system assessed as residual binding level at 10 uM by Kinomescan method relative to control"}, "[18]": {"biological_target": "Maternal embryonic leucine zipper kinase (Homo sapiens) (UniProt Q14680)", "assay": "Binding affinity to wild-type human full length MELK (M1 to V651 residues) expressed in bacterial expression system assessed as residual binding level at 10 uM by Kinomescan method relative to control"}, "[19]": {"biological_target": "Dual serine/threonine and tyrosine protein kinase (Homo sapiens) (UniProt Q6XUX3)", "assay": "Binding affinity to wild-type human full length RIPK5 (M1 to T929 residues) expressed in mammalian expression system assessed as residual binding level at 10 uM by Kinomescan method relative to control"}, "[20]": {"biological_target": "Vascular endothelial growth factor receptor 3 (Homo sapiens) (UniProt P35916)", "sequence (P35916 whole entry, the tested form may be a part)": "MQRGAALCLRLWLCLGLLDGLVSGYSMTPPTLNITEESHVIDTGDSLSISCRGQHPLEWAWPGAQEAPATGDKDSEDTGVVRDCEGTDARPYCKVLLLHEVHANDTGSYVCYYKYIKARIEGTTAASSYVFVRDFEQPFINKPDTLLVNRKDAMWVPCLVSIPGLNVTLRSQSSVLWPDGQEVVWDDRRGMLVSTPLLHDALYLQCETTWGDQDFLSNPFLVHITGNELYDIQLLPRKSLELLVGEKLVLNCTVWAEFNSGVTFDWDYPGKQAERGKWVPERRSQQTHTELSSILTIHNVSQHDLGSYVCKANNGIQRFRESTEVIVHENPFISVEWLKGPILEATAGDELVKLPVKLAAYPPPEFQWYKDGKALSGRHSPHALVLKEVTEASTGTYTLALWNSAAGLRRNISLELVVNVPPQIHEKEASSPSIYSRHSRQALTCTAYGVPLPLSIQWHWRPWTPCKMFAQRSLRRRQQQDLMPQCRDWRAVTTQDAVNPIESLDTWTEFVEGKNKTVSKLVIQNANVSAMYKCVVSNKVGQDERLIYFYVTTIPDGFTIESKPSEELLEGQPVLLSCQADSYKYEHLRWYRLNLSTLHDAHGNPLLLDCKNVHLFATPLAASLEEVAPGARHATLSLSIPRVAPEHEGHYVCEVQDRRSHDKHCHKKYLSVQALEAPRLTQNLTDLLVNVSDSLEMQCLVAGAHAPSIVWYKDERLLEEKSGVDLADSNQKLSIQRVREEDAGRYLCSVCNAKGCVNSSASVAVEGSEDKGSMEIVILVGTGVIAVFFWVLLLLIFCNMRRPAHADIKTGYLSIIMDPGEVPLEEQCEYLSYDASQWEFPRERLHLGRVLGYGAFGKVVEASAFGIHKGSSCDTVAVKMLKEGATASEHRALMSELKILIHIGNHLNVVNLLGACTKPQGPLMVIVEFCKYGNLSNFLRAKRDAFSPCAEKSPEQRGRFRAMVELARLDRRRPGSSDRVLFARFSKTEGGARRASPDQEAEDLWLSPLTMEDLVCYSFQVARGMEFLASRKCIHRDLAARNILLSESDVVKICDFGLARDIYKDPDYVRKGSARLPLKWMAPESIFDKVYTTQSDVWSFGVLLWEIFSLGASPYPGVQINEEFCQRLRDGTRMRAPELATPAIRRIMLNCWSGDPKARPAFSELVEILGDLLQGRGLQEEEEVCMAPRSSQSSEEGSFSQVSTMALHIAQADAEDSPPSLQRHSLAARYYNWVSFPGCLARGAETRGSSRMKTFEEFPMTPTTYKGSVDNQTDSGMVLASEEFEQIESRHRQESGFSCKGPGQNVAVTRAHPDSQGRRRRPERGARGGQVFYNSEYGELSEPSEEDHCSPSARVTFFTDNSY", "assay": "Binding affinity to wild-type human partial length FLT4 (E821 to E1196 residues) expressed in bacterial expression system assessed as residual binding level at 10 uM by Kinomescan method relative to control"}, "[21]": {"system": "Proto-oncogene tyrosine-protein kinase receptor Ret (Homo sapiens), P07949 [V804M]", "assay": "Binding affinity to human partial length RET V804M mutant (E713 to D1014 residues) expressed in bacterial expression system assessed as residual binding level at 10 uM by Kinomescan method relative to control"}, "[22]": {"biological_target": "Serine/threonine-protein kinase LATS1 (Homo sapiens) (UniProt O95835)", "assay": "Binding affinity to wild-type human partial length LATS1 (Q678 to V1130 residues) expressed in bacterial expression system assessed as residual binding level at 10 uM by Kinomescan method relative to control"}, "[23]": {"biological_target": "G protein-coupled receptor kinase 4 (Homo sapiens) (UniProt P32298)", "assay": "Binding affinity to wild-type human full length GRK4 (M1 to C578 residues) expressed in bacterial expression system assessed as residual binding level at 10 uM by Kinomescan method relative to control"}}, "note": "Activity calls are given as the source filed them. No cut-off for these calls is given here.", "data": [{"smiles": "CC(C)N1C(=O)C(NCCCN(C)C)=C(c2cn(C)c3ccccc23)C1=O.Cl", "values": [{"measurement": "Activity", "setting": "[1]", "result": 81, "unit": "%"}, {"measurement": "Activity", "setting": "[2]", "result": 100, "unit": "%"}, {"measurement": "Activity", "setting": "[3]", "result": 100, "unit": "%"}, {"measurement": "Activity", "setting": "[4]", "result": 92, "unit": "%"}, {"measurement": "Activity", "setting": "[5]", "result": 88, "unit": "%"}, {"measurement": "Activity", "setting": "[6]", "result": 100, "unit": "%"}, {"measurement": "inhibition", "setting": "THP-1", "result": "inactive"}, {"measurement": "Activity", "setting": "[7]", "result": 93, "unit": "%"}, {"measurement": "Activity", "setting": "[8]", "result": 99, "unit": "%"}, {"measurement": "Activity", "setting": "Jurkat", "result": "inactive"}, {"measurement": "Activity", "setting": "[9]", "result": 89, "unit": "%"}, {"measurement": "Activity", "setting": "[10]", "result": 98, "unit": "%"}, {"measurement": "Activity", "setting": "[11]", "result": 91, "unit": "%"}, {"measurement": "Activity", "setting": "[12]", "result": 100, "unit": "%"}, {"measurement": "Activity", "setting": "[13]", "result": 93, "unit": "%"}, {"measurement": "Activity", "setting": "[14]", "result": 100, "unit": "%"}, {"measurement": "Activity", "setting": "[15]", "result": 100, "unit": "%"}, {"measurement": "Activity", "setting": "[16]", "result": 100, "unit": "%"}, {"measurement": "Activity", "setting": "[17]", "result": 100, "unit": "%"}, {"measurement": "Activity", "setting": "[18]", "result": 100, "unit": "%"}, {"measurement": "Activity", "setting": "[19]", "result": 100, "unit": "%"}, {"measurement": "Activity", "setting": "[20]", "result": 99, "unit": "%"}, {"measurement": "Activity", "setting": "[21]", "result": 97, "unit": "%"}, {"measurement": "Activity", "setting": "[22]", "result": 96, "unit": "%"}, {"measurement": "Activity", "setting": "[23]", "result": 88, "unit": "%"}]}]}
